Here are results for one molecule from publication PMC13114161 (Antibiotics, 2026).

Data set [1] in a line: in vitro. In kind it is cell-based. Particulars: human. Here is the method:
(§1) The cytotoxicity of TXA11114 was evaluated in HEK293T and A549 cell lines using the CellTiter-Glo™ assay (Promega, Madison, WI, USA). HEK293T cells (human embryonic kidney cells transformed with sheared adenovirus 5 DNA and expressing SV40 large T antigen) and A549 cells (human alveolar basal epithelial adenocarcinoma cell line; hypotriploid with a modal chromosome number of 66) were obtained from Sai Life Sciences Ltd. (Hyderabad, India). These cell lines are well-characterized and consistent with commonly used reference lines (e.g., A549, ATCC CCL-185).
(§2) TXA11114 was tested in a dose–response format with a top concentration of 20 µM using 2-fold serial dilutions in triplicate. Doxorubicin and staurosporine were included as reference controls. Cells (1200 cells/well in 27 µL complete medium) were seeded into 384-well plates and incubated overnight at 37 °C with 5% CO2. The following day, cells were treated with 3 µL of 10× serially diluted compounds. After a 24 h incubation, CellTiter-Glo reagent was added, and plates were gently shaken for 15–20 min at room temperature. Luminescence was measured using an EnVision multimode plate reader (PerkinElmer, Thane, India).

A further data set addresses T1, CYP3A4 (Homo sapiens, UniProt P08684).
T1 construct: from tissue; host or cells: human liver microsomes
In words: Cytochrome P450 inhibition. The conditions noted are these: human liver microsomes; read-out: CYP Inhibition IC50, 3A4. The format is in vitro ADME. As to the method:
(§3) Inhibition of CYP1A2, CYP2D6, CYP2C9, CYP2C19, and CYP3A4 by TXA11114 was assessed in human liver microsomes by measuring the inhibition of probe substrate metabolism. Phenacetin, bufuralol, diclofenac, S-mephenytoin, and midazolam were used as probe substrates for CYP1A2, CYP2D6, CYP2C9, CYP2C19, and CYP3A4, respectively. Corresponding metabolites (acetaminophen, OH-bufuralol, 4-OH diclofenac, 4-OH mephenytoin, and 1-OH midazolam) were quantified by LC-MS/MS. Selective inhibitors (fluvoxamine (CYP1A2), quinidine (CYP2D6), sulfaphenazole (CYP2C9), ticlopidine (CYP2C19), and ketoconazole (CYP3A4)) were used as positive controls. Test and control compounds, prepared in DMSO at various concentrations, were spiked into 2× microsomal reaction mixtures, and 50 µL aliquots were transferred to individual wells. Probe substrates (25 µL, 4× concentration) were added to the respective wells and pre-incubated for 5 min at 37 °C. Reactions were initiated by the addition of 25 µL NADPH (4×) and incubated for 5 min (CYP3A4), 10 min (CYP1A2, CYP2D6, CYP2C9), or 20 min (CYP2C19). Reactions were quenched with 100 µL ice-cold acetonitrile containing glipizide as an internal standard. Plates were centrifuged at 4000 rpm for 15 min, and 100 µL supernatants were analyzed by LC-MS/MS in MRM mode. […] Percent inhibition was calculated as 100 − percent activity. IC50 values were determined using GraphPad Prism (version 5.02).
For orientation: Microsomes from liver hold many membrane-bound enzymes, among them those of drug oxidation.

The target of another data set is T2, CYP2D6 (Homo sapiens, UniProt P10635).
T2 construct: from tissue; host or cells: human liver microsomes
In words: Cytochrome P450 inhibition. The format is in vitro ADME. The conditions noted are these: human liver microsomes; read-out: CYP Inhibition IC50, 2D6. As to the method:
as §3

The nature of data set [2]: in vitro. Particulars: human. In kind it is cell-based. Here is the method:
as §1, §2
This is another data set of the same source.

The subject of another data set is P. aeruginosa ATCC 27853. As to the kind of experiment: Membrane polarization assay DiOC2(3). The format is cell-based, Pseudomonas aeruginosa. As to the method:
RND efflux pumps require an intact proton motive force across the inner membrane to mediate drug efflux. Accordingly, collapse of the membrane potential could indirectly disable efflux activity and result in apparent antibiotic potentiation. To determine whether TXA11114 dissipates the membrane potential of P. aeruginosa, membrane polarization was assessed using the fluorescent probe 3,3′-diethyloxacarbocyanine iodide (DiOC2(3)). DiOC2(3) accumulates in cells with polarized membranes, undergoing a concentration-dependent shift from green to red fluorescence due to dye stacking; membrane depolarization prevents this shift. […] CCCP and azithromycin were included as positive and negative controls, respectively. […] This discrepancy likely reflects a methodological limitation of the DiOC2(3) assay in Gram-negative bacteria. Specifically, EDTA treatment is required to transiently permeabilize the outer membrane to permit DiOC2(3) access to the cytoplasmic membrane (see Methods). While necessary for probe uptake, EDTA can sensitize cells to secondary perturbations and may exaggerate subtle fluorescence changes at supraphysiological compound concentrations.
P. aeruginosa membrane polarization assays were conducted as described previously using strain ATCC 27853. Briefly, mid-exponential phase (OD600 of 0.5) P. aeruginosa was pelleted by centrifugation at 3000× g for 10 min at room temperature. Cells were then resuspended in 1× PBS, treated with 10 mM EDTA for 5 min and then centrifuged at 300× g for 10 min to remove EDTA. EDTA-treated cells were pelleted and resuspended to an OD600 of 1.0 in assay resuspension buffer. A 6 mM DiOC2(3) stock in DMSO was added to cells for a final concentration of 30 µM. DiOC2(3)-loaded cells were then added to a 96-well black bottom microplate for a final volume of 200 µL. […] After 15 min incubation at 37 °C in dark, DiOC2(3) fluorescence was recorded using the SpectraMax iD5 spectrophotometer (Molecular Devices, San Jose, CA, USA) using 450 nm excitation. Red fluorescence intensity was recorded at 670 nm emission.

Molecules are shown by their SMILES. pIC50: −log10 of the molar value.

T1 sequence (P08684 whole entry): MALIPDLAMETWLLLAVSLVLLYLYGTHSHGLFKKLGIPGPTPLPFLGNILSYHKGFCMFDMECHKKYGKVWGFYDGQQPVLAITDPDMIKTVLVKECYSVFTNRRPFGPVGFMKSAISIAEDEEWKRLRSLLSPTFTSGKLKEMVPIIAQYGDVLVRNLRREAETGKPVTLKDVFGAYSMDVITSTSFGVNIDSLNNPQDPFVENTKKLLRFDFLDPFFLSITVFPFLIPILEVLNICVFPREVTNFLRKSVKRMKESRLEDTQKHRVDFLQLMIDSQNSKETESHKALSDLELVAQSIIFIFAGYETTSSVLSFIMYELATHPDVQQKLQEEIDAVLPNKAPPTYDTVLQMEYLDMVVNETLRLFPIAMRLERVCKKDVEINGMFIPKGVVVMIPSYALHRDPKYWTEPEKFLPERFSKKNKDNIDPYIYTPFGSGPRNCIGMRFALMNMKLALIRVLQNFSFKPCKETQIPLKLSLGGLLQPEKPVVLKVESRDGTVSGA
T2 sequence (P10635 whole entry): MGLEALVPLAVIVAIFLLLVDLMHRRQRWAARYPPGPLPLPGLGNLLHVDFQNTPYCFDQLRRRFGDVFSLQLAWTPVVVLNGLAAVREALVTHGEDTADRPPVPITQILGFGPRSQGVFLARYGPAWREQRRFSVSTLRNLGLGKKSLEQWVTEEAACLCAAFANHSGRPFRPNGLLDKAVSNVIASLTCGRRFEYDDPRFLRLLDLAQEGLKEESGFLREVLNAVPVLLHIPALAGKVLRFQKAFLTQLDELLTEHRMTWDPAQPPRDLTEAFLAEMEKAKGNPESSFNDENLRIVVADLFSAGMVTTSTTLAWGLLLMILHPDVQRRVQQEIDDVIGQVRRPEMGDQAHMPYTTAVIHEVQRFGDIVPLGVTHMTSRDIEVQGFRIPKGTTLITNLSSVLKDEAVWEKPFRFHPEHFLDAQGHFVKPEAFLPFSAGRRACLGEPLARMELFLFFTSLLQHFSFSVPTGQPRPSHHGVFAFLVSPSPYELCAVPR

Turning to `NCC(F)C[C@@H](N)CNC(=O)c1cc2ccc(-c3ccc(F)cc3)cc2[nH]1` (stereo partly drawn) [TXA11114, N-((2R)-2,5-diamino-4-fluoropentyl)-6-(4-fluorophenyl)-1H-indole-2-carboxamide], the IC50 at 24 h in the data set “in vitro [1]” and in the data set “in vitro [2]” was above 20 µM throughout. Besides, the values for the pIC50 at CYP3A4 and at CYP2D6 were 4.20 and below 4.00, respectively. In addition, the “Concentrations with modest increase in apparent depolarization” value in the data set with P. aeruginosa ATCC 27853 is above 10 µg/mL. Besides, the Membrane depolarization entry in the data set on P. aeruginosa ATCC 27853 (0.01–20 µM) was “did not induce significant membrane depolarization”.
